pIC50: −log10 of the molar value.
How the values were obtained:
Type in all cases: biochemical
recombinant human βARK1 = target: T1, recombinant human βARK1 (Homo sapiens, UniProt P25098); assay: Inhibitory activity against βARK1 (33P phosphorylation of synthetic peptide); settings: recombinant human βARK1, 60 minutes at room temperature
T1 construct: made in house; host or cells: Sf-9 insect cells (baculovirus, pBacPAK8)
T1 sequence (P25098 1-689): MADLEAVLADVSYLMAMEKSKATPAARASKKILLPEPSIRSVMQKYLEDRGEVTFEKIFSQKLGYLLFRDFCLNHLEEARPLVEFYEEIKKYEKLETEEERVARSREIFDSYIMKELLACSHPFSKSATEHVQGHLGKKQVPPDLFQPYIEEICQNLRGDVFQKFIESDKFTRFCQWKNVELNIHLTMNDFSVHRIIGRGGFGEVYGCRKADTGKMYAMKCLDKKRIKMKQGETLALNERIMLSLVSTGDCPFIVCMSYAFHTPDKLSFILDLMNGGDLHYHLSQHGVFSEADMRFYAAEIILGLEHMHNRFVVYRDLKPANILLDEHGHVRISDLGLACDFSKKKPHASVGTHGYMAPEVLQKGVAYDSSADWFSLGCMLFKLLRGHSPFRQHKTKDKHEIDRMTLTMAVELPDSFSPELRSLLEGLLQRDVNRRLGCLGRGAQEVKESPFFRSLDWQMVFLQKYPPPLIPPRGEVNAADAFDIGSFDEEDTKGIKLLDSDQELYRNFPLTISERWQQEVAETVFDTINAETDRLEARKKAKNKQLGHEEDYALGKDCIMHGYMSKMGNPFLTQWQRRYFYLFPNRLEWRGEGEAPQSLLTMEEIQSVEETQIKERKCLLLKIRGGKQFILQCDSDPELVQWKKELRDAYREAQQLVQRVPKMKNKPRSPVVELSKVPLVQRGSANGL
Protocol: Human βARK1 was amplified by PCR based on the base sequence of human βARK1 mRNA registered in GenBank (Accession No. M80776) using a human leukocyte cDNA library (Gibco BRL Cat. No. 10421-022) as a template. The amplified cDNA fragment was inserted into a pBacPAK8 vector (Clontech) to construct a plasmid.
Recombinant human βARK1 was expressed using the BacPAK Baculovirus Expression System (Clontech, Cat. No. K1601-1). 1×10^6 Sf-9 cells were adhered to a 35 mm dish in 2.5 mL of TMN-FH Insect Medium containing 10 vol % FBS (Pharminogen, Cat. No. PM-21227M) and cultured overnight at 27° C. On the following day, the medium was removed and 500 ng of the above plasmid, BacPAK6 viral DNA cleaved with Bsu36I (5 μL) and 1.5 mL of the same medium mixed with 4 μL of Bacfectin were added followed by culturing for 5 hours, further adding 1.5 mL of medium and subsequently culturing for 5 days. […] The culture supernatant after 5 days was recovered and a plaque assay was carried out to isolate single plaques. These were then infected into Sf-9 cells and the resulting culture supernatant was designated as Passage 1 (1−3×10^11 pfu/mL). Passage 1 was added to 3×10^7 Sf-9 cells to a multiplicity of infection (MOI) of 0.1 (pfu/cell), suspension culturing was carried out for 5 days using a spinner flask, and the resulting culture supernatant was designated as Passage 2 (4×10^10 pfu/mL) and used as a viral liquid for large-volume expression.
Sf-9 cells at 3×10^9 cells/200 mL were infected by adding Passage 2 to an MOI of 100 followed by addition of medium to bring to a liquid volume of 2 L and further culturing for 3 days. After recovering the cells by centrifugation and washing three times with PBS, the cells were suspended in 100 mL of Lysis Buffer (20 mmol/L HEPES-HCl (pH 7.2), 5 mmol/L EDTA, 3 mmol/L phenylmethylsulfonyl fluoride (PMSF)). After lysing the cells by ultrasonic treatment at low temperature, the supernatant was recovered by centrifuging (45,000×g, 15 minutes) (sup1). NaCl was added to the resulting supernatant to a final concentration of 250 mmol/L followed by ultracentrifugation (300,000×g, 60 minutes) and using the subsequent supernatant as a crude cell extract (sup2).
Purification was carried out with reference to the literature (Benovic, J. L., Methods Enzymol. 1991; 200: 351-362; Kim, C. M. et al., Receptor 1993; 3: 39-55; Sohlemann, P. et al., FEBS Letters 1993; 324: 59-62). The crude cell extract was accurately brought to a volume of 400 mL with Buffer C (20 mmol/L HEPES-HCl (pH 7.2), 5 mmol/L EDTA, 0.02 vol % Triton X-100) followed by loading onto a 50 mL SP-Sepharose FF (Amersham Pharmacia Biotech) column equilibrated with Buffer C. […] ETA was carried out on each fraction using anti-GRK2 antibody (Santa-Cruz Cat. No. SC-562) and the positive fractions were collected (GRK2=βARK1). This was then diluted three-fold with Buffer C and loaded on a 5 mL HiTrap Heparin column (Amersham Pharmacia Biotech) column equilibrated with Buffer C. After washing the column with Wash Buffer (100 mmol/L NaCl, Buffer C), the column was eluted with an NaCl concentration gradient (100 to 600 mmol/L NaCl for 100 minutes, flow rate: 1 mL/min). The positive fractions as determined by ETA were collected and stored in a freezer at −80° C.
A synthetic peptide having an amino acid sequence of biotinated-[…] was used in accordance with a previous report (Chen, C. Y. et al., J. Biol. Chem. 1993; 268: 7825-7831). This synthetic peptide can also be synthesized with reference to known synthesis methods (for example, Chen, C. Y. et al., J. Biol. Chem. 1993; 268: 7825-7831, Biochemistry 1991; 30: 5118-5125). 2 μl of a DMSO solution in which the test compound was diluted to as to be […] the final concentration was dispensed into a 96-well plate (round bottom) (Falcon 351190) (final concentration: 4 vol % DMSO). […]

CDK3/Cyclin E complex = target: T2, CDK3/Cyclin E complex (Homo sapiens, UniProt Q00526); assay: In vitro kinase assay, CDK3/Cyclin E complex; settings: recombinant protein (Upstate); read-out: CDK3/cyclinE IC50
T2 construct: purchased Upstate Inc. 14-487
T2 sequence (Q00526 whole entry): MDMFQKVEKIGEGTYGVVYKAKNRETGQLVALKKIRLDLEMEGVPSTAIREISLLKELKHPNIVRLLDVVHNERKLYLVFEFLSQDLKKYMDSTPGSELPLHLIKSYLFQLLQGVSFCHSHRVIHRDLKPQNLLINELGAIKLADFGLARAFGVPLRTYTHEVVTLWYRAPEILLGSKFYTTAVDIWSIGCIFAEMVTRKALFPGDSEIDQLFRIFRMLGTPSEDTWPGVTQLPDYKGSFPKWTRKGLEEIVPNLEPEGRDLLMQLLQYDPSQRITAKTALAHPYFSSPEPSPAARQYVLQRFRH
T2 sequence (P24864 whole entry partner): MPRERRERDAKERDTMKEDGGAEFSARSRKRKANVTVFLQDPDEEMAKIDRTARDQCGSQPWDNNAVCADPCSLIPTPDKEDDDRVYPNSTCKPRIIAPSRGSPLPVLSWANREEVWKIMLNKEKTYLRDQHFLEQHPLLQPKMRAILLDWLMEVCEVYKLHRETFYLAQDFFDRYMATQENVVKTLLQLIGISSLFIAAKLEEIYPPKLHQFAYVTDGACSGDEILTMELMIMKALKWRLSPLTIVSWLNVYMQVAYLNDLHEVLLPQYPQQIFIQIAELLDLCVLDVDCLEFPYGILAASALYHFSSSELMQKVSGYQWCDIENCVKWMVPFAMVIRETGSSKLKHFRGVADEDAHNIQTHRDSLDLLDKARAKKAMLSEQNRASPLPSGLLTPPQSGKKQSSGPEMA
Protocol: (§1) Inhibitory activity against Aurora A, CDK1/Cyclin B complex, CDK2/Cyclin E complex and CDK3/Cyclin E complex were measured by in vitro kinase assay using recombinant proteins.

CDK2/Cyclin E complex = CDK2/Cyclin E complex (Homo sapiens, UniProt P24941); assay: In vitro kinase assay, CDK2/Cyclin E complex; settings: recombinant protein (Upstate); read-out: CDK2/cyclinE IC50
Protocol: as §1

SMILES | pIC50 (recombinant human βARK1) | pIC50 (CDK3/Cyclin E complex) | pIC50 (CDK2/Cyclin E complex)
CNC(=O)c1cc(NC2(C(=O)Nc3nc4ccc5[nH]ncc5c4s3)CC2)ccc1Cl [compound 126] | 8.12 | 7.42 | 7.41
O=C(CNc1ccc(Cl)c(O)c1)Nc1nc2ccc3[nH]ncc3c2s1 [compound 6] | 8.40 | 7.55 | 7.59
CC(=O)Nc1cc(NC2(C(=O)Nc3nc4ccc5[nH]ncc5c4s3)CC2)ccc1F [compound 120] | 8.43 | 6.98 | 7.19
CC(=O)Nc1cc(NC(C)(C)C(=O)Nc2nc3c(C(F)(F)F)cc4[nH]ncc4c3s2)ccc1F [compound 81] | 8.08 | 7.26 | 7.03
CCC(=O)Nc1cc(NC2(C(=O)Nc3nc4ccc5[nH]ncc5c4s3)CC2)ccc1F [compound 121] | 8.34 | 6.90 | 6.96
CC(C)(Nc1ccc(Cl)c(C(=O)NCCCC(=O)O)c1)C(=O)Nc1nc2c(C(F)(F)F)cc3[nH]ncc3c2s1 [compound 144] | 8.11 | 6.74 | 6.60
O=C(Nc1nc2ccc3[nH]ncc3c2s1)C(CO)Nc1ccc(Cl)cc1 (stereo not drawn) [compound 132] | 8.11 | 7.54 | 7.70
CC(=O)Nc1cc(NC(C)(C)C(=O)Nc2nc3c(C(F)(F)F)cc4[nH]ncc4c3s2)ccc1Cl [compound 53] | 8.70 | 7.35 | 7.29
CC(C)(Nc1ccc(Cl)cc1)C(=O)Nc1nc2ccc3[nH]ncc3c2s1 [compound 35] | 8.06 | 7.10 | 7.35
CCOC(=O)c1cc(NC2(C(=O)Nc3nc4ccc5[nH]ncc5c4s3)CC2)ccc1Cl [compound 118] | 8.06 | 6.77 | 6.94
CNC(=O)c1cc(NC(C)(C)C(=O)Nc2nc3c(C(F)(F)F)cc4[nH]ncc4c3s2)ccc1Cl [compound 55] | 8.20 | 7.64 | 7.36
CC(=O)Nc1cc(NC(C)(C)C(=O)Nc2nc3ccc4[nH]ncc4c3s2)ccc1Cl [compound 128] | 8.55 | 7.21 | 7.55
O=C(Nc1nc2ccc3[nH]ncc3c2s1)C1(Nc2ccc(Cl)cc2)CC1 [compound 117] | 8.41 | 7.36 | 7.72
CC(C)(Nc1ccc(Cl)c(O)c1)C(=O)Nc1nc2c(C(F)(F)F)cc3[nH]ncc3c2s1 [compound 95] | 8.06 | 7.66 | 7.64
CC(C)(Nc1cccc(O)c1)C(=O)Nc1nc2ccc3[nH]ncc3c2s1 [compound 33] | 8.11 | 7.48 | 7.48
CCNC(=O)c1cc(NC(C)(C)C(=O)Nc2nc3c(C(F)(F)F)cc4[nH]ncc4c3s2)ccc1F [compound 58] | 8.19 | 7.33 | 6.97
CCC(=O)Nc1cc(NC(C)(C)C(=O)Nc2nc3ccc4[nH]ncc4c3s2)ccc1Cl [compound 129] | 8.41 | 6.99 | 7.07
CC(C)(Nc1cccc(S(N)(=O)=O)c1)C(=O)Nc1nc2c(C(F)(F)F)cc3[nH]ncc3c2s1 [compound 82] | 8.03 | 8.23 | 7.82
CC(C)(Nc1ccc(Cl)c(C(N)=O)c1)C(=O)Nc1nc2c(C(F)(F)F)cc3[nH]ncc3c2s1 [compound 135] | 8.49 | 7.64 | 7.28
CCNC(=O)c1cc(NC(C)(C)C(=O)Nc2nc3c(C(F)(F)F)cc4[nH]ncc4c3s2)ccc1Cl [compound 60] | 8.35 | 7.80 | 7.43
CC(C)(Nc1ccc(Cl)c(C(=O)NC2CC2)c1)C(=O)Nc1nc2c(C(F)(F)F)cc3[nH]ncc3c2s1 [compound 75] | 8.06 | 7.39 | 6.88
CC(=O)Nc1cc(NCC(=O)Nc2nc3ccc4[nH]ncc4c3s2)ccc1Cl [compound 16] | 8.08 | 7.30 | 7.43
CC(C)(Nc1ccc(Cl)c(C(=O)NCC(N)=O)c1)C(=O)Nc1nc2c(C(F)(F)F)cc3[nH]ncc3c2s1 [compound 85] | 8.00 | 9.22 | 8.62
